According to US6391304B1, “Peptides derived from the ENV gene of the feline immunodeficiency virus and their applications” (Centre National de la Recherche Scientifique, priority 1997, dated 2002):
Values joined by “and” are separate entries in the source; they are usually repeats but may differ in a detail not shown here. Identical values can stand only once. Ends that are not written are not given here.

How the values were obtained:
FIV Petaluma strain = experiment: Neutralization of infection of CrFK cells by sera of immunized cats; assay type: cell-based; details: for neutralizing antibodies in sera of immunized cats: CrFK cell line
Method: The detection of antibodies neutralizing the infection of the CrFKs with the FIV Petaluma strain is carried out as described previously (Richardson J. et al., J. Gen. Virol., 1996, 77, 759-771).
To evaluate the function of the antibodies, the feline sera directed against the SU2 peptide are tested for their neutralizing value with respect to the infection of CrFK cells with the FIV Petaluma strain.

TM2 envelope peptide = experiment: Seroconversion ELISA after the virulence test, TM2 peptide; assay type: in vivo, cats; details: for Binding of the sera to TM2, 3 weeks after the virulence test / Binding of the sera to TM2, 4 weeks after the virulence test / Binding of the sera to TM2, 5 weeks after the virulence test: ELISA, seral dilution 1/25, individual cats; for response against the TM2 peptide: at 4 weeks after the test
Method: (§1) The cats are subjected to a virulence test, one week after the final immunization, by means of an intraperitoneal inoculation of 10 CID50 of FIV Wo isolate, one CID50 corresponding to the dose capable of infecting 50% of the cats.
(§2) The production on of antibodies is evaluated before the test by means of an ELISA using an immobilized peptide (SU2, SU5, TM2 or TM3-19) and immunoprecipitation. After the test, the seroconversion is monitored by an ELISA using immobilized envelope peptides and a recombinant FTV capsid protein.
(§3) The ELISA with the immobilized envelope peptides corresponding to the immunogenic domains SU2 and TM2 and with the immobilized recombinant p25 protein (FIV capsid protein) is carried out as described in Avraméas A. et al. (Res. Virol., 1993, 144, 209-218).
(§4) Microplates (Immunolon II, Dynatech) are coated with 0.5 μg/well for the peptides and with 0.1 μg/well for the p25 protein.
(§5) The tests are carried out in duplicate and the results are expressed as average values.
(§6) After the test, the seroconversion against the envelope peptides and the p25 protein is evaluated at serum dilutions of 1/25 and 1/100, respectively.
(§7) The absorbance values (at 405 nm) are corrected by subtraction of the absorbance values obtained by binding with an immobilized control peptide.
(§8) The tests are normalized with reference to the binding of a mixture of serum from cats infected with FIV with a peptide representing the immunodominant domain of the FIV transmembrane glycoprotein (TM2) (Avraméas A. et al., Res. Virol., 1993, 144, 209-218).

[1] = system: p25 recombinant FIV capsid protein; experiment: Seroconversion ELISA after the virulence test, p25; assay type: in vivo, cats; details: for Binding of the sera to p25, 3 weeks after the virulence test / Binding of the sera to p25, 4 weeks after the virulence test / Binding of the sera to p25, 5 weeks after the virulence test: ELISA, seral dilution 1/100, individual cats
Method: as §1, §2, §3, §4, §5, §6, §7, §8

FIV Wo = experiment: Test of reduction of viral infectivity in mitogen-activated feline PBM cells; assay type: cell-based; details: PBMC cells activated with a mitogen; serum dilution 1/5
Method: For the test of reduction of the viral infectivity, serial dilutions ( 1/50, 1/100, 1/200 and 1/400) of a stock suspension of Wo isolate and a single dilution of serum (⅕) are prepared in a complete RPMI medium containing 50 μM of 2-ME and 10 mM of HEPES.
The feline serum is mixed with an equal volume of the serial dilutions of virus and incubated in a final volume of 100 μl for one hour at 37° C.
The concentration of PBM cells activated with a mitogen is adjusted to 4×10^6/ ml in a complete RPMI medium comprising 2-ME, HEPES and 200 U/ml of recombinant human IL-2. 0.1 ml of cell suspension (4×10^5 cells) is added to the tubes.
After incubation overnight, the viral inoculum is recovered by washing the cells twice with 0.5 ml of complete RPMI medium.
The cells are then resuspended fin 0.2 ml of feline serum diluted in a complete RDMI medium comprising 2-ME, HEPES and 100 U/ml of IL-2, and then transferred into the wells of 96-well microtitration plates.
Half of the medium is replaced four days after the infection.
10 μl aliquots are recovered 7 days after the infection, for an analysis of the reverse transcriptase activity.
Given that the Wo strain was not adapted by passage on CrFK cells, the influence of the antibodies was studied on the infection in feline PBMC cells.

| Substance | neutralizing antibodies in sera of immunized cats (FIV Petaluma strain) | Binding of the sera to TM2, 3 weeks after the virulence test (TM2 envelope peptide) | Binding of the sera to TM2, 4 weeks after the virulence test (TM2 envelope peptide) | Binding of the sera to TM2, 5 weeks after the virulence test (TM2 envelope peptide) | response against the TM2 peptide (TM2 envelope peptide) | Binding of the sera to p25, 3 weeks after the virulence test [1] | Binding of the sera to p25, 4 weeks after the virulence test [1] | Binding of the sera to p25, 5 weeks after the virulence test [1] | response to the p25 protein ([1]; at 5 weeks after the test) | effect of sera on infection with FIV Wo (reduction of infectivity) (FIV Wo) | final dilution of serum which reduces the infection by at least 50% (FIV Petaluma strain; cat 327, CrFK cells) |
| --- | --- | --- | --- | --- | --- | --- | --- | --- | --- | --- | --- |
| KKGLQQLQEWEDWVGWIGN [TM3-19, 19-amino-acid fragment of the TM3 domain of the FIV Wo Env transmembrane glycoprotein (759-777)] | do not neutralize | 0 optical density (3×) and 1.2 optical density | 0.1 optical density and 2.4 optical density and 0 optical density and 0.5 optical density | 1.9 optical density and 2.5 optical density and 0 optical density and 2.3 optical density | all but one (347) of the cats immunized with the TM3-19 peptide show a weak or undetectable response | 0 optical density (2×) and 0.2 optical density and 0.1 optical density | 0.1 optical density and 2.3 optical density and 0 optical density (2×) | 0.6 optical density and 2.3 optical density and 0 optical density and 0.1 optical density | one cat (348) immunized with the TM3-19 peptide does not respond and among the other 3 cats, 2 animals (346, 349) develop only weak responses | do not modify the infection |  |
| SU2: peptide of the SU2 domain of the FIV surface envelope glycoprotein, SEQ ID NO: 2, used as immunogen (RAISSWKQRNRWEWRPD) | Only one cat (327) immunized with the SU2 peptide develops neutralizing antibodies | 0 optical density | 1.3 optical density and 2.2 optical density and 2.1 optical density and 1.4 optical density | 2.1 optical density (2×) and 2.3 optical density and 2.5 optical density | developed a large response | 0 optical density | 0.2 optical density (2×) and 0.4 optical density and 0 optical density | 1.1 optical density and 1.3 optical density and 1.9 optical density and 0.2 optical density |  | do not modify the infection | 1/160 |
